The record followed here is a melting point compilation (Tetko et al.).

Molecules are shown by their SMILES.

The conditions of this series: a range is the spread between reports.
As usually defined, the melting point is the temperature, or range, at which the solid turns liquid. In turn, `ClC(Cl)C(Cl)(Cl)Cl` registered a melting point of -29 to -28.8 °C.

Molecule `CC(C)=CC(C)(C)C` returned a melting point of -106 °C. In turn, `O=C1CN(N=Cc2ccc([N+](=O)[O-])o2)C(=O)N1` came in with a melting point of 263 to 268 °C. Next, `C=C(Cl)C(=O)O`: 65 to 66 °C. The value for `CCCC(=O)O` was -8 to -5 °C; that for `O=Cc1ccc[nH]1` was 43 to 46.5 °C; that for `COC(=O)NN` was 72 to 73 °C. Molecule `Nc1ccc(N)c2c1C(=O)c1ccccc1C2=O` showed a melting point of 263 to 268 °C. The value for `CC12CCC(C1)C(C)(C)C2=O` (stereo unspecified) was 5 to 6.1 °C. The value for `O=C1CCN(c2ccccc2)N1` was 122 to 126 °C; that for `Cc1ccc(C)n1-c1ccccc1` was 49.5 to 50 °C.

With `CC(C)(O)C(=O)O`, the melting point fell in the range of 79 to 82.5 °C. `CCC(C)(CC)CC` gave a melting point of -91 to -90.9 °C. As to `Cc1csc(S)n1`, the melting point lay in the range of 88 to 89.3 °C.

Turning to `CCCc1ccccc1C`, the melting point was -60.3 to -60 °C.

For `OC[C@@H](O)[C@@H](O)[C@@H](O)CO`, the melting point lay in the range of 102 to 103 °C.

As for `NC(=O)c1cccnc1`, the melting point amounted to 130 °C. Turning to `Clc1ccc(Cl)c(Br)c1`, the melting point fell in the range of 34 to 35 °C. `CC(=O)c1ccc(Cl)c(Cl)c1` gave a melting point of 73 to 76 °C.

Molecule `COC(=O)c1ccc(C(=O)OC)cc1` returned a melting point of 141 to 142 °C.

Regarding `O=C(O)COc1ccccc1C(=O)O`, the melting point was in the range of 189 to 191 °C. In turn, `O=[N+]([O-])c1ccc2nc[nH]c2c1` registered a melting point of 208 °C. Next, `NC(=O)CI`: 93.5 to 94.5 °C; `Cc1ccc([N+](=O)[O-])cc1C`: 29 to 31 °C; `C[Si](C)(C)C#C[Si](C)(C)C`: 22 to 26 °C.

For the molecule `C=CCCCCCCCCC(=O)O`, the melting point lay in the range of 24 to 24.5 °C. Regarding `O=C(O)c1ccccn1`, the melting point lay in the range of 136 to 137 °C. Next, `Cc1ccc2c(c1N)C(=O)c1ccccc1C2=O`: 205 to 206 °C. Consider `Cc1cc([N+](=O)[O-])ccc1Cl`, for which the melting point was in the range of 42.5 to 43 °C. `OCCN1CCCCC1` returned a melting point of 16 to 17.9 °C. The value for `CCCCCCCCCCCCCCCCCCO` was 58 to 61 °C; that for `C=C(c1ccccc1)c1ccccc1` was 6 to 8.2 °C; that for `NCCc1c[nH]c2ccccc12` was 114 to 118 °C. The value for `CC12CCC3c4ccc(O)cc4CCC3C1CCC2O` (stereo unspecified) was 173 to 178 °C; that for `O=c1cc(-c2ccccc2)oc2cc(O)cc(O)c12` was 286 to 287 °C; that for `CCC(C)CC(O)CC` (stereo unspecified) was -91.2 to -91 °C. Next, `CCc1cccc(C)c1C`: -50 to -49.5 °C; `CC(C(C)(C)C)C(C)(C)C`: -39 to -38.7 °C. Turning to `COC(=O)CS(=O)(=O)c1ccccc1`, the melting point is 30 to 35 °C. The value for `NC(=O)NCc1ccccc1` was 148 to 149 °C; that for `CCCCCCCCCCCCCC(=O)OCC` was 12 to 12.3 °C; that for `CN=C=S` was 32 to 36 °C. Consider `CCCCOc1ccc(C(=O)O)cc1`, for which the melting point fell in the range of 147 to 148 °C. `CCCCNC(N)=O` had a melting point of 95 to 97 °C. In turn, `O=C(Cl)CCCCCCCCC(=O)Cl` showed a melting point of -5 to -2.5 °C. Take `COc1ccc(O)cc1OC`: the melting point lay in the range of 81 to 83 °C.

Turning to `O=C(c1ccccc1)c1ccncc1`, the melting point is 70 to 72 °C. Consider `Nc1ccncc1N`, for which the melting point fell in the range of 216 to 220 °C. `Oc1ccc(Sc2ccc(O)cc2)cc1` registered a melting point of 153 to 155 °C. Molecule `Nc1cccc2cccnc12` gave a melting point of 65 to 70 °C.

In turn, `Fc1c(F)c(F)c(-c2c(F)c(F)c(F)c(F)c2F)c(F)c1F` registered a melting point of 67 to 68 °C. Next, `C=CCC(C)(C)C`: -137 °C; `Nc1c(Cl)c(Cl)c(Cl)c(Cl)c1Cl`: 232 to 235 °C; `Oc1ccccc1C=Nc1ccccc1`: 47.5 to 51 °C. In turn, `Nc1ccc(Oc2ccccc2)cc1` gave a melting point of 83 to 84 °C.

In the case of `NC(=O)c1ccccc1Cl`, the melting point is 142 to 143 °C.

`CN(C)c1ccc(/N=N/c2ccccc2C(=O)O)cc1` displayed a melting point of 180 to 183 °C. The molecule `OCCOCCO` yielded a melting point of -10.4 to -10 °C. `Cc1cc(C(=O)O)ccc1N` registered a melting point of 170 °C.

Molecule `C=C(C)CCCCCC` yielded a melting point of -78 to -77.8 °C. The value for `CCOCCOC(C)=O` was -62 to -61 °C; that for `CC(=O)C(=O)O` was 11 to 13.8 °C; that for `NNC(=O)NN` was 154 to 158 °C. Next, `C=C(C(=O)O)C(F)(F)F`: 50 to 51.5 °C. Next, `CCOc1cccc(C(=O)O)c1`: 136 to 137 °C; `CCOc1ccc([N+](=O)[O-])cc1`: 58 to 60 °C.

For the molecule `Cc1cc(C)cc(C(=O)O)c1`, the melting point is 170 to 171 °C. The value for `COc1cc(C=O)cc(OC)c1O` was 112 to 113 °C; that for `NC(=S)c1c(Cl)cccc1Cl` was 151 to 152 °C. The value for `Oc1ccc2ccccc2c1-c1c(O)ccc2ccccc12` was 216 to 217 °C; that for `Oc1nc2ccccc2s1` was 138 to 139 °C. Molecule `CCCCCCCCCCCCCCCCCCC` had a melting point of 32 to 33 °C. Next, `Oc1ccc(Cl)cc1`: 41 to 44 °C; `Clc1ccc(-c2ccc(Cl)cc2)cc1`: 149 °C; `BrCCBr`: 9.9 to 10 °C.

Molecule `c1cc2ccc3ccc4ccc5ccc6ccc1c1c2c3c4c5c61` registered a melting point of 437 to 440 °C.

Take `Oc1cc2ccccc2cc1O`: the melting point lay within 162 to 164 °C. The value for `C=CC(=O)NC(C)(C)C` was 128 to 129 °C; that for `CS` was -123 to -121 °C. `Cc1ccc(S(=O)(=O)F)cc1` showed a melting point of 41 to 41.5 °C. Next, `Clc1ccccc1Cl`: -18 to -16.7 °C; `CCC#CC(C)C`: -117 °C; `c1ccc2n[nH]nc2c1`: 97 °C. Molecule `Oc1c(Br)c(Br)c(Br)c(Br)c1Br` had a melting point of 226 to 230 °C. The value for `Clc1cccc(Br)c1Cl` was 58 to 60 °C; that for `Cc1ccc(P(c2ccc(C)cc2)c2ccc(C)cc2)cc1` was 145 to 149 °C; that for `O=C(O)c1ccc([N+](=O)[O-])cc1` was 237 to 242 °C. Consider `Nc1ccc(O)c([N+](=O)[O-])c1`, for which the melting point fell in the range of 126 to 129 °C. Turning to `O=C(/C=C/c1ccc2ccccc2c1)/C=C/c1ccc2ccccc2c1`, the melting point was in the range of 242 to 245 °C. `Nc1ccc(C(=O)NCC(=O)O)cc1` displayed a melting point of 198 to 200 °C. The value for `N#Cc1cccc2ccccc12` was 36 to 37.5 °C; that for `CCOC=C(C#N)C#N` was 65 to 66 °C; that for `Cc1cc2nc[nH]c2cc1C` was 204 to 206 °C. Next, `ClCc1ccc(Cl)cc1`: 28 to 31 °C; `CCC(=O)c1cc(O)ccc1O`: 96.5 to 98 °C; `O=C1CC(=O)NC(=S)N1`: 234 to 235 °C. The molecule `Cc1cc(NS(=O)(=O)c2ccc(N)cc2)no1` gave a melting point of 167 to 172 °C. Next, `CCC(C)=NO`: -30 to -29.5 °C; `Cc1ccc(N(CC2=NCCN2)c2cccc(O)c2)cc1`: 174 to 175 °C. The molecule `c1ccc(Cn2ccnc2)cc1` gave a melting point of 69 to 71 °C. As for `O=C(Oc1ccccc1)c1ccccc1`, the melting point lay within 67 to 71 °C. Consider `COc1cc(OC)cc(OC)c1`, for which the melting point fell in the range of 52 to 54.5 °C.

For the molecule `C=Cc1ccc([N+](=O)[O-])cc1`, the melting point was in the range of 27 to 29 °C. The value for `Cc1cc(C)nc(C)c1` was -46 to -43 °C; that for `Cc1ccc(C(C)C)cc1` was -68.9 to -68 °C. The value for `Cc1cccc(O)c1C` was 71.5 to 75 °C.

Molecule `Nc1cccc([N+](=O)[O-])c1` came in with a melting point of 112 to 114 °C.

With `COc1cccc(C(=O)O)c1O`, the melting point lay within 151 to 152 °C. The value for `COc1ccc(C)cc1OC` was 24 to 27 °C; that for `COC(=O)c1cc(Cl)ccc1O` was 46 to 50 °C; that for `O=C[C@H](O)[C@@H](O)[C@@H](O)[C@H](O)CO` was 166 to 167 °C. As to `O=C(O)c1c(F)cccc1F`, the melting point was 158 to 159 °C. For `CC(=O)OCCCCOC(C)=O`, the melting point was in the range of 12 to 13 °C.

`O=C(c1ccccc1)c1ccc(Cl)cc1` yielded a melting point of 76 to 77.5 °C. Molecule `CCC#CCCCC` came in with a melting point of -104 °C. Next, `NNc1ccccc1`: 19 to 19.6 °C. Take `O=C(O)c1ccccc1Br`: the melting point fell in the range of 146 to 150 °C. As to `COc1ccc2c3c1O[C@H]1[C@@H](O)C=C[C@H]4[C@@H](C2)N(C)CC[C@@]341`, the melting point was 155 to 158 °C. On to `CCOc1ccc(C=O)cc1OC`, for which the melting point lay in the range of 61 to 64.5 °C. The value for `Nc1ccc(/C=C/c2ccc([N+](=O)[O-])cc2)c([N+](=O)[O-])c1` was 198 to 202 °C; that for `c1cnc2[nH]ccc2c1` was 105 to 106 °C.

`Oc1ccc(-c2ccc(O)cc2)cc1` yielded a melting point of 278 to 283 °C. The value for `CCCCCCCCCCCCCCCC(C)C` was 5.7 to 6 °C. As for `CCOc1cccc(OCC)c1`, the melting point lay in the range of 11 to 12.4 °C. The value for `CN(C)C=O` was -61 to -60.4 °C; that for `Cc1cccc(C)c1` was -48 to -47 °C. Next, `COc1ccc(C=O)c(C(=O)O)c1OC`: 147 to 150 °C; `Nc1ccncn1`: 150 to 155 °C; `CC(C)(C)C1=CC(=O)C=C(C(C)(C)C)C1=O`: 66 to 67 °C. `CCN1CCOCC1` registered a melting point of -64 to -63 °C.

`O=c1c(-c2ccc(O)cc2)coc2cc(O)cc(O)c12` yielded a melting point of 300 to 302 °C. Next, `CC1(C)COC(=O)C1O` (stereo unspecified): 90 to 92 °C. For `O=C(O)c1cc(I)cc(I)c1O`, the melting point lay in the range of 231 to 236 °C. On to `c1ccc(C2CCCCC2)cc1`, for which the melting point lay in the range of 5 to 7.3 °C. Next, `Cc1ccc(C)c(C(=O)O)c1`: 132 to 134 °C; `CCCCC1(CC)C(=O)NC(=O)NC1=O`: 126 to 128 °C.
